Several values for one entry are separate records, joined by “and”; a condition that tells them apart may be missing. Equal entries are not always repeated. Toxic doses and inconclusive results are not listed. No stated cut-off is given here; in the data, active means T/C of 150% or more; inactive means T/C below 125%.
Tested on: L1210 leukemia ip in BDF1 mice, survival T/C
Test: NCI In Vivo Anticancer Drug Screen. Data for tumor model L1210 Leukemia (intraperitoneal) in B6D2F1 (BDF1) mice
Settings: endpoint: mean survival time, higher = longer survival
Summary of the method: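 Antitumor effect is assessed in tumor-bearing animals. Survival in the compound arm is compared with a vehicle-dosed control arm and expressed as their quotient.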

[1] = dose: 100.0 mg/kg/injection, schedule: Q01DX001 (ip), vehicle: carboxymethylcellulose (CMC)
[2] = dose: 200.0 mg/kg/injection, schedule: Q01DX001 (ip), vehicle: carboxymethylcellulose (CMC)
[3] = dose: 400.0 mg/kg/injection, schedule: Q01DX001 (ip), vehicle: carboxymethylcellulose (CMC)
[4] = dose: 100.0 mg/kg/injection, schedule: Q04DX003 (ip), vehicle: Klucel (hydroxypropylcellulose) (HPC)
[5] = dose: 200.0 mg/kg/injection, schedule: Q04DX003 (ip), vehicle: Klucel (hydroxypropylcellulose) (HPC)
[6] = dose: 400.0 mg/kg/injection, schedule: Q04DX003 (ip), vehicle: Klucel (hydroxypropylcellulose) (HPC)
[7] = dose: 50.0 mg/kg/injection, schedule: Q01DX009 (ip), vehicle: saline
[8] = dose: 100.0 mg/kg/injection, schedule: Q01DX009 (ip), vehicle: saline

Measured: T/C

O=C(O)COc1cc(Cl)c(Cl)cc1Cl
inactive: dose: 50.0 mg/kg/injection, schedule: Q01DX001 (ip), vehicle: carboxymethylcellulose (CMC) 102 % of control | [1] 106 % of control | dose: 100.0 mg/kg/injection, schedule: Q04DX003 (ip), vehicle: saline with Tween-80 100 % of control | [2] 112 % of control | dose: 200.0 mg/kg/injection, schedule: Q04DX003 (ip), vehicle: saline with Tween-80 103 % of control | [3] 108 % of control | dose: 400.0 mg/kg/injection, schedule: Q04DX003 (ip), vehicle: saline with Tween-80 100 % of control

OCCN=C1c2cc(Cl)ccc2-c2c(Cl)cc(Cl)cc21
inactive: [4] 103 % of control | [5] 97 % of control | [6] 87 % of control

CC(=O)Nc1c(Br)cc2c(c1Br)Cc1cc(N=Cc3ccc4c(c3)OCO4)ccc1-2
inactive: dose: 100.0 mg/kg/injection, schedule: Q01DX001 (ip), vehicle: other 100 % of control | dose: 200.0 mg/kg/injection, schedule: Q01DX001 (ip), vehicle: other 94 % of control | dose: 400.0 mg/kg/injection, schedule: Q01DX001 (ip), vehicle: other 103 % of control

CCOC(=O)NCC1(c2ccccc2)CCNCC1
inactive: dose: 20.0 mg/kg/injection, schedule: Q04DX003 (ip), vehicle: Klucel (hydroxypropylcellulose) (HPC) 102 % of control | dose: 40.0 mg/kg/injection, schedule: Q04DX003 (ip), vehicle: Klucel (hydroxypropylcellulose) (HPC) 102 % of control | dose: 80.0 mg/kg/injection, schedule: Q04DX003 (ip), vehicle: Klucel (hydroxypropylcellulose) (HPC) 102 % of control

c1ccc(Pc2ccccc2)cc1
inactive: dose: 100.0 mg/kg/injection, schedule: Q01DX001 (ip), vehicle: saline with Tween-80 103 % of control | dose: 100.0 mg/kg/injection, schedule: Q01DX009 (ip), vehicle: saline with Tween-80 93 % of control | dose: 200.0 mg/kg/injection, schedule: Q01DX001 (ip), vehicle: saline with Tween-80 105 % of control | dose: 200.0 mg/kg/injection, schedule: Q01DX009 (ip), vehicle: saline with Tween-80 98 % of control | dose: 400.0 mg/kg/injection, schedule: Q01DX001 (ip), vehicle: saline with Tween-80 104 % of control

Nc1ccc(OCCNC(=O)Nc2ccc(S(=O)(=O)F)cc2)c(Cl)c1
inactive: dose: 75.0 mg/kg/injection, schedule: Q01DX001 (ip), vehicle: other 96 % of control | dose: 150.0 mg/kg/injection, schedule: Q01DX001 (ip), vehicle: other 105 % of control | dose: 300.0 mg/kg/injection, schedule: Q01DX001 (ip), vehicle: other 98 % of control

C=CCSc1ccc(Cl)cc1
inactive: dose: 100.0 mg/kg/injection, schedule: Q01DX001 (ip), vehicle: saline 105 % of control | dose: 200.0 mg/kg/injection, schedule: Q01DX001 (ip), vehicle: saline 103 % of control

COC(=O)CC(Cc1cc(OC)ccc1OC)(C(=O)OC)C(=O)OC
inactive: dose: 12.5 mg/kg/injection, schedule: Q04DX003 (ip), vehicle: Klucel (hydroxypropylcellulose) (HPC) 102 % of control | dose: 25.0 mg/kg/injection, schedule: Q04DX003 (ip), vehicle: Klucel (hydroxypropylcellulose) (HPC) 94 % of control | dose: 50.0 mg/kg/injection, schedule: Q04DX003 (ip), vehicle: Klucel (hydroxypropylcellulose) (HPC) 98 % of control | dose: 100.0 mg/kg/injection, schedule: Q01DX001 (ip), vehicle: Klucel (hydroxypropylcellulose) (HPC) 106 % of control | [4] 105 % of control | dose: 200.0 mg/kg/injection, schedule: Q01DX001 (ip), vehicle: Klucel (hydroxypropylcellulose) (HPC) 97 % of control | [5] 103 % of control | dose: 400.0 mg/kg/injection, schedule: Q01DX001 (ip), vehicle: Klucel (hydroxypropylcellulose) (HPC) 98 % of control | [6] 105 % of control

Cc1c(C(C)(C)C)cc(C(C)(C)C)c(O)c1[N+](=O)[O-]
inactive: [1] 93 % of control and 95 % of control | dose: 100.0 mg/kg/injection, schedule: Q04DX002 (ip), vehicle: carboxymethylcellulose (CMC) 90 % of control and 91 % of control | dose: 100.0 mg/kg/injection, schedule: Q04DX003 (ip), vehicle: carboxymethylcellulose (CMC) 97 % of control and 98 % of control | [2] 95 % of control and 99 % of control and 111 % of control | dose: 200.0 mg/kg/injection, schedule: Q04DX002 (ip), vehicle: carboxymethylcellulose (CMC) 87 % of control and 89 % of control | dose: 200.0 mg/kg/injection, schedule: Q04DX003 (ip), vehicle: carboxymethylcellulose (CMC) 96 % of control and 90 % of control | [3] 94 % of control and 101 % of control and 105 % of control | dose: 400.0 mg/kg/injection, schedule: Q04DX002 (ip), vehicle: carboxymethylcellulose (CMC) 96 % of control and 111 % of control | dose: 400.0 mg/kg/injection, schedule: Q04DX003 (ip), vehicle: carboxymethylcellulose (CMC) 96 % of control and 87 % of control

CCCCCCCc1ccc2cccc3c2c1C(=O)c1ccccc1-3
inactive: [4] 92 % of control | [5] 92 % of control | [6] 94 % of control

c1ccc(P2(c3ccccc3)=NP(c3ccccc3)(c3ccccc3)=NP(c3ccccc3)(c3ccccc3)=N2)cc1
inactive: [7] 89 % of control | [8] 86 % of control | dose: 200.0 mg/kg/injection, schedule: Q01DX009 (ip), vehicle: saline 88 % of control

Nc1nc2ccc([N+](=O)[O-])cc2s1
inactive: dose: 50.0 mg/kg/injection, schedule: Q01DX009 (ip), vehicle: Klucel (hydroxypropylcellulose) (HPC) 105 % of control | dose: 100.0 mg/kg/injection, schedule: Q01DX009 (ip), vehicle: Klucel (hydroxypropylcellulose) (HPC) 104 % of control | dose: 100.0 mg/kg/injection, schedule: Q04DX003 (ip), vehicle: saline 97 % of control | dose: 200.0 mg/kg/injection, schedule: Q04DX003 (ip), vehicle: saline 101 % of control | dose: 400.0 mg/kg/injection, schedule: Q04DX003 (ip), vehicle: saline 86 % of control

NC1=NNC(N)=NN1
inactive: dose: 12.5 mg/kg/injection, schedule: Q01DX009 (ip), vehicle: saline 93 % of control | dose: 25.0 mg/kg/injection, schedule: Q01DX009 (ip), vehicle: saline 101 % of control | [7] 100 % of control and 107 % of control | [8] 92 % of control

Reference: PubChem BioAssay AID248 (DTP/NCI, 2004)
